What all share (experiment): biochemical
Common to all, as to set-up: LanthaScreen kinase activity assay (Thermo Fisher), dose-dependent inhibition by C-604
Common to all, as to details: read-out: IC50 (C-604)
Background: Time-resolved FRET reads energy transfer from a long-lived donor to a nearby acceptor.

Assay [1] concerns the target MARK3 (Homo sapiens, UniProt P27448). The protocol:
(§1) To identify potential C-604 off-targets, we utilised a commercially available off-target screening service (Thermo Fisher Scientific) to assess the impact of C-604 on the in vitro activity of 100 human kinases (Supplementary Fig. 8a). Out of 100 tested targets, C-604 (1 µM) inhibited GWL (inhibition 95%) and an additional 10 kinases (inhibition ≥ 80%). […] The in vitro off-target effects of compound C-604 were determined by assessing its inhibitory potential in a panel of 100 human kinases using the LanthaScreen Kinase Activity Assay (Thermo Fisher Scientific).

The target in assay [2] is T1, NUAK1 (Homo sapiens, UniProt O60285).
T1 sequence (O60285 1-661): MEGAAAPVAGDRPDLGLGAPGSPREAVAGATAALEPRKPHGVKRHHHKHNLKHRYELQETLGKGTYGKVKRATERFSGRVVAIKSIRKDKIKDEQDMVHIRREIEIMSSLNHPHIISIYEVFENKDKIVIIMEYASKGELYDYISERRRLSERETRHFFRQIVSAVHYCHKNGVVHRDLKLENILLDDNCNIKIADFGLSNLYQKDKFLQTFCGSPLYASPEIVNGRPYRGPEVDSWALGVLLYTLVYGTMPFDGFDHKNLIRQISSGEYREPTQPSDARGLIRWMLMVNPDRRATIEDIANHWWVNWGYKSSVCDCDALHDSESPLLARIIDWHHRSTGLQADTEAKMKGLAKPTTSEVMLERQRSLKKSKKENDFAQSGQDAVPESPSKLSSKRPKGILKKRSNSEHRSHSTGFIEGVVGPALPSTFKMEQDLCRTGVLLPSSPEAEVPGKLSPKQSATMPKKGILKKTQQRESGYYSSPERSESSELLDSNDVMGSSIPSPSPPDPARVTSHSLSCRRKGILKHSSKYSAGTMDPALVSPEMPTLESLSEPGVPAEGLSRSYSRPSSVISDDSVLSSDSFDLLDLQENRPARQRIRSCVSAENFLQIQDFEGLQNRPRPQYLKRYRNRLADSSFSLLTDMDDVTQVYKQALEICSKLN
The protocol:
as §1

The target of assay [3] is T2, PRKD2 (Homo sapiens, UniProt Q9BZL6).
T2 sequence (Q9BZL6 1-878): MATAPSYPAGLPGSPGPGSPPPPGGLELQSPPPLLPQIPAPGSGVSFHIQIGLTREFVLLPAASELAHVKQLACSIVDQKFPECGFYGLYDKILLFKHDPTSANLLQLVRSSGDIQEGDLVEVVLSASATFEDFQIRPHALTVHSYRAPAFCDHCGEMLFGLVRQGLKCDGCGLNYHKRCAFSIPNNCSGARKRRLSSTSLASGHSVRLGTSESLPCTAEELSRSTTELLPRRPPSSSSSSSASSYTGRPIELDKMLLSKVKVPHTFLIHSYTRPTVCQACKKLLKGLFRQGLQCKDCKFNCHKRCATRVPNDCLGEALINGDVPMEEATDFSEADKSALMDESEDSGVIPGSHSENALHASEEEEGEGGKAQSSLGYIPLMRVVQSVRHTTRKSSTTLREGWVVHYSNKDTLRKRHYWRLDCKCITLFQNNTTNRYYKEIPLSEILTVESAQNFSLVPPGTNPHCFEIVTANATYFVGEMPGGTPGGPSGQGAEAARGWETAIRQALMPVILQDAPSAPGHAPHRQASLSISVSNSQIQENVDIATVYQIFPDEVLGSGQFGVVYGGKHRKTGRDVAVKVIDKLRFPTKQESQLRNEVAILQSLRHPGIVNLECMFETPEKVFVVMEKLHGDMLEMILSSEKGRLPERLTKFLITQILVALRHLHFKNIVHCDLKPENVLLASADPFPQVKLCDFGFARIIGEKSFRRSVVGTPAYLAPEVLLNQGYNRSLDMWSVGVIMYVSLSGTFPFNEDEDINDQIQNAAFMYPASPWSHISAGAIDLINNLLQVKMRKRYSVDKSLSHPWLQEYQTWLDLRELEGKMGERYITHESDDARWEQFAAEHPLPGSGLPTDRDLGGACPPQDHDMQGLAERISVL
The protocol:
as §1

The target of assay [4] is T3, ULK2 (Homo sapiens, UniProt Q8IYT8).
T3 sequence (Q8IYT8 1-1036): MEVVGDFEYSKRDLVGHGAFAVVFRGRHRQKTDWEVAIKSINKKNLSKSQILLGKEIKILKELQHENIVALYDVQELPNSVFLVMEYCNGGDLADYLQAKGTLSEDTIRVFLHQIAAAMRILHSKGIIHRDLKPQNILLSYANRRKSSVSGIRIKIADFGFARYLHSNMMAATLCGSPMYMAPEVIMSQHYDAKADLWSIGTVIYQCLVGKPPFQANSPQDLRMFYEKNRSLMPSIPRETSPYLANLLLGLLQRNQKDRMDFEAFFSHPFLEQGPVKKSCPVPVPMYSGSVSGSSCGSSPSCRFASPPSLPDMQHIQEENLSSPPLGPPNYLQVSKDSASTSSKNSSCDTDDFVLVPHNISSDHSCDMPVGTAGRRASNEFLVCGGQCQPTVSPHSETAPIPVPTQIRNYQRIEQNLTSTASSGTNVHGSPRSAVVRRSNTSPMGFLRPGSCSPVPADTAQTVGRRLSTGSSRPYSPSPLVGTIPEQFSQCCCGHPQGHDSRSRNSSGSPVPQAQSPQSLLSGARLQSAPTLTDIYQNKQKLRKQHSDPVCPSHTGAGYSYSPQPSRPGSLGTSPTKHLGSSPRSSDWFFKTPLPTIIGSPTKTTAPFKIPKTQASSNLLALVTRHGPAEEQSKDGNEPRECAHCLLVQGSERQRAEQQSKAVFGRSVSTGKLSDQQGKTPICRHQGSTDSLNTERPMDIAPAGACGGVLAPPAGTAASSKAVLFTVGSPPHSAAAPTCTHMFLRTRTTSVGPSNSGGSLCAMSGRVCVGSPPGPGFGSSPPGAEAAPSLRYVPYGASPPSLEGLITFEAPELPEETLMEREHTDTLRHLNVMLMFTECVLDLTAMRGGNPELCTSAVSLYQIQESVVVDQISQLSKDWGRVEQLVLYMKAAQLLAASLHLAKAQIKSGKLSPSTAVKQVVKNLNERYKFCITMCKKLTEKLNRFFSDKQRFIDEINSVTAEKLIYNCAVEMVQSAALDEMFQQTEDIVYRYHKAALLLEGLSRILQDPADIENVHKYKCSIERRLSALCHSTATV
Here is the method: as §1

Chain of MARK3 (P27448 whole entry): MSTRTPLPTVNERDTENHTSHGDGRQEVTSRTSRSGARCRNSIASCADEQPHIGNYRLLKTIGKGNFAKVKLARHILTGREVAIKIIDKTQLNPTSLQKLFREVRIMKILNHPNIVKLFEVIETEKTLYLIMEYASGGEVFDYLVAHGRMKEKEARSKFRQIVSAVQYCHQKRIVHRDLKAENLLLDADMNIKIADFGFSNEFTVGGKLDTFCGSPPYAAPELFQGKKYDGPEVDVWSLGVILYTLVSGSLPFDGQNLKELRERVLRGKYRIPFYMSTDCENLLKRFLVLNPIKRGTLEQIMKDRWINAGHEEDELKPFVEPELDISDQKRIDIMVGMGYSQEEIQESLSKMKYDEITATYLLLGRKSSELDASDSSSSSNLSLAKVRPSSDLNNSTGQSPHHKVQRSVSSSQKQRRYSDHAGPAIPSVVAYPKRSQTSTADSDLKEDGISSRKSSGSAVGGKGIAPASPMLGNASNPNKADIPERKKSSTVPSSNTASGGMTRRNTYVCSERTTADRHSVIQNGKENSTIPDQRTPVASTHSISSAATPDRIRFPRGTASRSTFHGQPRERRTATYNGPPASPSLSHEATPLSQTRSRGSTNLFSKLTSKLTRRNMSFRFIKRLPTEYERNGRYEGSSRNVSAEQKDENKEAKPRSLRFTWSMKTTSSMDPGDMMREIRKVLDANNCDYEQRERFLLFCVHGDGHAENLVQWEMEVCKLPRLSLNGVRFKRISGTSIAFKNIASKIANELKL

Consider `CNC(=O)c1c[nH]c2ncc(-c3ccc(OCCN4CCC(c5ccccc5)C4)cc3)nc12` (racemic) [compound 21, C-604], for which the IC50 (usually the concentration needed to halve the response being measured) in assay [1] is 480 nM; in assay [2], 10.1 nM; in assay [3] it was 373 nM; in assay [4], 21.6 nM.

Source of the values: PMC12391391, “The balance between B55α and Greatwall expression levels predicts sensitivity to Greatwall inhibition in cancer cells” (Nature Communications, 2025).
